Test results as given in ChEMBL document CHEMBL1201862, “PubChem BioAssay data set” (2004).
Calls of active or inactive are those of the source.

Columns and labels:
Cytochrome P450 2C19 = Cytochrome P450 2C19 (Homo sapiens, UniProt P33261); experiment: Cytochrome panel assay with activity outcomes. Panel member name: p450-cyp2c19 Compounds with AC50 equal or less than 10 uM are considered active; type: functional
Cytochrome P450 3A4 = Cytochrome P450 3A4 (Homo sapiens, UniProt P08684);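 note: CYP3A4 tested as one member of a cytochrome P450 panel screen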
Chain of Cytochrome P450 3A4 (P08684 whole entry): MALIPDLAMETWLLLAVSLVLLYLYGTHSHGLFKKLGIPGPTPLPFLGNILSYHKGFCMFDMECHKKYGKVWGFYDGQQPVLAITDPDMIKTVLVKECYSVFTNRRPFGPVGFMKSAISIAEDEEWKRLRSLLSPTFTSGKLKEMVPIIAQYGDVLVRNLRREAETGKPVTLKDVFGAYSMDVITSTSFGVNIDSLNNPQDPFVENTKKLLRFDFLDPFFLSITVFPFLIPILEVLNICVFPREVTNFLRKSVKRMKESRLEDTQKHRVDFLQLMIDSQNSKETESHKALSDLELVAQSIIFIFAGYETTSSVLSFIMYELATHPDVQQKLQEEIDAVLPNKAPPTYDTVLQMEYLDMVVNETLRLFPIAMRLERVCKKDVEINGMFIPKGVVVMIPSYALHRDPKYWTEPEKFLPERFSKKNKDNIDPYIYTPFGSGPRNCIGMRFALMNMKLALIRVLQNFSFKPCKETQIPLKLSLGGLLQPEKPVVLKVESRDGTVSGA

[1] = target: T1, Heat shock factor protein 1 (Mus musculus, UniProt P38532); experiment: decrease of HSF1-responsive luciferase luminescence – cell-based, NIH3T3, dose retest, confirmation (AID 2382); type: functional;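 note: NIH3T3 fibroblasts with HSF1-driven luciferase reporter stressed by proteasome inhibitor MG132; luminescence from HSF1-driven luciferase expression after 8 hours of MG132 stress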
T1 sequence (P38532 whole entry): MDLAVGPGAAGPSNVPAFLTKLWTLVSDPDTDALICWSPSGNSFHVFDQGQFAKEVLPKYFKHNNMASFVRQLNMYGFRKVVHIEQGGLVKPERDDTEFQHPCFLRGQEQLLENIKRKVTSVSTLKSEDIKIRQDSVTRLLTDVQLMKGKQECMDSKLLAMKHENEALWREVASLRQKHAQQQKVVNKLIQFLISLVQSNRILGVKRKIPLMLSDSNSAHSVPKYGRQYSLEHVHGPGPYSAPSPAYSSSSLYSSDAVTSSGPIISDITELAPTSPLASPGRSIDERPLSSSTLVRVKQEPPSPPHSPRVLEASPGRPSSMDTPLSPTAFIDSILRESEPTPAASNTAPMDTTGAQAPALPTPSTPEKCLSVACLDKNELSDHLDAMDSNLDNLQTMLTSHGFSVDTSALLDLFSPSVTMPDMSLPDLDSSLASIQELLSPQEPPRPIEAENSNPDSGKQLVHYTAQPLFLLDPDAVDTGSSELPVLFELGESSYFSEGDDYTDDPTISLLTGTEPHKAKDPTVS

Cytochrome P450 2C9 = Cytochrome P450 2C9 (Homo sapiens, UniProt P11712)
Chain of Cytochrome P450 2C9 (P11712 whole entry): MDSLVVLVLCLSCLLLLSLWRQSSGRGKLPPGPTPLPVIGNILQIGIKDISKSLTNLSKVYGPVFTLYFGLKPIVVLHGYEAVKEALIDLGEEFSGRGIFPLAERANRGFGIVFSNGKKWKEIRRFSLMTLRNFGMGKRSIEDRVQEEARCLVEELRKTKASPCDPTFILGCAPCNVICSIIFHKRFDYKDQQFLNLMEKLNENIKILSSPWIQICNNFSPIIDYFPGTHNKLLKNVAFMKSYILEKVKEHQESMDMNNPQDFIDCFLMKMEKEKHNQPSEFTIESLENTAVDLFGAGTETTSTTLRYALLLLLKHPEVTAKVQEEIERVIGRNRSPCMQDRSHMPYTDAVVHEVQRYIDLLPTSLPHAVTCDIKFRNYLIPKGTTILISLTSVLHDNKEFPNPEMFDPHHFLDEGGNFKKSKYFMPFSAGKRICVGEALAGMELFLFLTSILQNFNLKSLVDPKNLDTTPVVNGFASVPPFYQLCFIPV

[2] = target: T2, Replicative DNA helicase DnaB (Mycobacterium tuberculosis, UniProt P9WMR3); experiment: DnaB intein splicing inhibitors, dose response, biochemical, cell-free fluorescence (AID 449749); type: functional
T2 sequence (P9WMR3 whole entry): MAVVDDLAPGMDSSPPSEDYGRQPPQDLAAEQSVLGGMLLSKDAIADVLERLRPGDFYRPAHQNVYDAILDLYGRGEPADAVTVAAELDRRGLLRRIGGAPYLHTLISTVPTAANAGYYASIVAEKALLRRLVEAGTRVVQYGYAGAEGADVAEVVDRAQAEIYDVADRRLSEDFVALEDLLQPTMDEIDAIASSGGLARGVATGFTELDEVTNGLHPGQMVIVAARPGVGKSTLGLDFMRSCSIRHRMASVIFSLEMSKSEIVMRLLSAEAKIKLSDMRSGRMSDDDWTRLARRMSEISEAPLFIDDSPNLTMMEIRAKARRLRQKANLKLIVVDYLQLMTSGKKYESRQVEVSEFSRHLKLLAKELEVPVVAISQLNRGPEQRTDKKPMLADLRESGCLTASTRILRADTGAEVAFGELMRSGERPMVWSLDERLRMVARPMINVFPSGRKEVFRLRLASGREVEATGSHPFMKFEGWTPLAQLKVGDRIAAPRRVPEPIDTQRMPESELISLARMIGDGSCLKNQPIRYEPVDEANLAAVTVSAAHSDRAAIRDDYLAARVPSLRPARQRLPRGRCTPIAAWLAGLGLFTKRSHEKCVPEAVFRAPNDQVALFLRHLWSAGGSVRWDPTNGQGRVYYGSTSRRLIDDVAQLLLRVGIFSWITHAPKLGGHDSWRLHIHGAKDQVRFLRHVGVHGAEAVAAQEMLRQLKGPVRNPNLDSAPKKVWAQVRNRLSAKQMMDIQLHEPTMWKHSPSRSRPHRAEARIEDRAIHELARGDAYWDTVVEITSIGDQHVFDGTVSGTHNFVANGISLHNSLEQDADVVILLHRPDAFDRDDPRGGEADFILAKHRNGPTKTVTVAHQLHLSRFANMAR

Protein RecA = target: T3, Protein RecA (Mycobacterium tuberculosis, UniProt P9WHJ3); experiment: Fluorescence Cell-Free Homogeneous Dose Retest to Identify Inhibitors of RecA-Intein Splicing Activity. [Related pubchem assays (depositor defined):AID2097, AID2223, AID489010, AID492950]; type: functional
T3 sequence (P9WHJ3 whole entry): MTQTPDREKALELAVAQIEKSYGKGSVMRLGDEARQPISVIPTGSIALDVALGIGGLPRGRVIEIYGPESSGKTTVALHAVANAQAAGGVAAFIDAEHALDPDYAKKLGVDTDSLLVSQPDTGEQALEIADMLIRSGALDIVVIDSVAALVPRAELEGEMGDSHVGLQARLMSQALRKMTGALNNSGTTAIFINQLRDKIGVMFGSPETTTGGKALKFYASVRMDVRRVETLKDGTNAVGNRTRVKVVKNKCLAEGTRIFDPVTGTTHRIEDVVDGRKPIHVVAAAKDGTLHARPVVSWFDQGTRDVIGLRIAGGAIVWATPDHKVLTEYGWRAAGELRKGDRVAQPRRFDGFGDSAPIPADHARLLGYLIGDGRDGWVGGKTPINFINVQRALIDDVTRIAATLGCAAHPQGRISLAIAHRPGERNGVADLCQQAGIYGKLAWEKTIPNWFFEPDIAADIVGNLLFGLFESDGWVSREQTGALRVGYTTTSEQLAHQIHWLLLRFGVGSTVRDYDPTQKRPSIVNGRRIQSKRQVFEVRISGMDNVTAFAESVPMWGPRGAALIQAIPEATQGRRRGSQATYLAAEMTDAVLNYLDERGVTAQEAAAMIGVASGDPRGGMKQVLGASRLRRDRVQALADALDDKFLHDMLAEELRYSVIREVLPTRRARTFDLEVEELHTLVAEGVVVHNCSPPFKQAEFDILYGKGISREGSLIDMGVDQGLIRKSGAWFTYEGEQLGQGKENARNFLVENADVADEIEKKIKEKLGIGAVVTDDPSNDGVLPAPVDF

Cytochrome P450 2D6 = Cytochrome P450 2D6 (Homo sapiens, UniProt P10635);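 note: CYP2D6 member of a cytochrome P450 panel assay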
Chain of Cytochrome P450 2D6 (P10635 whole entry): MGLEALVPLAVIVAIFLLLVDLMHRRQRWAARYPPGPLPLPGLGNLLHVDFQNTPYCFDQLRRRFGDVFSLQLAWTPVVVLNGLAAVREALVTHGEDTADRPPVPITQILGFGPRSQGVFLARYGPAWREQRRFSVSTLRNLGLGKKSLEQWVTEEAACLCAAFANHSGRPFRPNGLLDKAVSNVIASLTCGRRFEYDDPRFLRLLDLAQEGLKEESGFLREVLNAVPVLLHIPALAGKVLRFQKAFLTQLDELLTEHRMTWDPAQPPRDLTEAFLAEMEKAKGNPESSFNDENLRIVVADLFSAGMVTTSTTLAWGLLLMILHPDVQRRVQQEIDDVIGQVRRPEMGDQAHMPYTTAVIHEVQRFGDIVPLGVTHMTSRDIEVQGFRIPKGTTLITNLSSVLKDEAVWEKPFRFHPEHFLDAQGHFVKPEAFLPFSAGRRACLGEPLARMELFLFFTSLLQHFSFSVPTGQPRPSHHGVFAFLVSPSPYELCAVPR

Chain of Cytochrome P450 2C19 (P33261 whole entry): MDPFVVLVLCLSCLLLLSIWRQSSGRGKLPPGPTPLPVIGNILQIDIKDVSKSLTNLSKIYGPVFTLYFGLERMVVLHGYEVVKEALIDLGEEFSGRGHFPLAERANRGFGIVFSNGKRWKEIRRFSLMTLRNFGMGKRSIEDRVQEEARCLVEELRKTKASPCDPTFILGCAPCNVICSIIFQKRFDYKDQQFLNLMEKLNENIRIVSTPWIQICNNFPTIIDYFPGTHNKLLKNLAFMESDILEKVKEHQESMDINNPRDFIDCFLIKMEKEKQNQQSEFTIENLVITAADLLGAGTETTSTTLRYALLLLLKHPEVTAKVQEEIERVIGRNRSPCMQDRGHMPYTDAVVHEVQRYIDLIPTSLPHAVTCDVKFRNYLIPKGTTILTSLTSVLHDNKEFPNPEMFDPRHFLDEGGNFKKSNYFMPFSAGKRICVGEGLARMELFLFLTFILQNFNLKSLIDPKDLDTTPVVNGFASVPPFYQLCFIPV

In the case of COc1ncc2nc(C)c(=O)n(-c3ccccc3)c2n1, the AC50 (Cytochrome P450 2C19; read-out: AC50) is reported as 39.8 µM (inconclusive) and the AC50 (Cytochrome P450 3A4) is reported as 25.1 µM (inconclusive).

COc1ccccc1CN1CC(C(=O)NCCN2CCNC2=O)CCC1=O (centres undefined) was tested, and the EC50 [1] was 9.48 µM (active).

CCCCn1c(N)c(N(CC(C)C)C(=O)c2cccc(S(=O)(=O)N3CCCCC3)c2)c(=O)[nH]c1=O was tested, and the EC50 [1] was > 195 µM (not active).

In the case of O=c1c(-c2ccc(Cl)cc2)nc2cnc(N3CCNCC3)nc2n1-c1ccccc1, the AC50 (Cytochrome P450 2C9) is reported as 15.8 µM (inconclusive) and the AC50 (Cytochrome P450 3A4) is reported as 12.6 µM (inconclusive).

For COCCn1c(=O)c(-c2ccccc2)nc2cnc(OC)nc21, the AC50 (Cytochrome P450 2C9) was 20 µM (inconclusive) and the AC50 (Cytochrome P450 3A4) was 25.1 µM (inconclusive).

For Cc1n[nH]c2c1C(c1ccc3c(c1)OCO3)C(C#N)=C(N)O2 (centres undefined), the AC50 [2] was 15.6 µM (active) and the EC50 (Protein RecA) was 6.16 µM (active).

For CCN(C(=O)COC(=O)/C=C/c1ccccc1)C1CCCCC1, the EC50 [1] was > 195 µM (not active).

In the case of Cn1c(=O)n(C)c2cc(NS(C)(=O)=O)ccc21, the EC50 [1] is reported as > 195 µM (not active).

In the case of CCN(CC)S(=O)(=O)c1ccc(C)c(NC(=O)CNCc2ccccc2OC)c1, the EC50 [1] is reported as > 195 µM (not active).

For Cc1ccc(S(=O)(=O)N2CCN(C(=O)c3ccccc3Cc3ccccc3)CC2)c(C)c1, the AC50 [2] was 2.54 µM (active) and the EC50 (Protein RecA) was 208 µM (active).

CC1=NN(c2ccccc2)C(=O)/C1=C\c1cn(CCC#N)nc1-c1ccc(Cl)cc1 was tested, and the AC50 [2] was 3.78 µM (active) and the EC50 (Protein RecA) was 2.77 µM (active).

COc1ccc(C(=O)N2CCC3(CC2)CN(c2ccncc2)C3)cc1 was tested, and the AC50 (Cytochrome P450 2C9) was 39.8 µM (inconclusive), the AC50 (Cytochrome P450 3A4) was 15.8 µM (inconclusive) and the AC50 (Cytochrome P450 2D6) was 25.1 µM (inconclusive).

In the case of Cc1ccc(-n2c(C)cc(C(=S)N3CCOCC3)c2C)cc1C, the AC50 (Cytochrome P450 3A4) is reported as 31.6 µM (inconclusive) and the AC50 (Cytochrome P450 2D6) is reported as 22.4 µM (inconclusive).

With CC(C(=O)NC1CC(C)(C)NC(C)(C)C1)c1ccc([N+](=O)[O-])cc1 (centres undefined) the EC50 [1] was > 195 µM (not active).

In the case of O=C(CCN1CCCCC1)N1CCc2c([nH]c3ccccc23)[C@H]1c1cccnc1, the AC50 (Cytochrome P450 2C19) is reported as “inconclusive” and the AC50 (Cytochrome P450 2D6) is reported as 3.16 µM (inconclusive).

In the case of C=CCSc1ncccc1C(=O)NCc1ccc(C)cc1, the AC50 (Cytochrome P450 2C9) is reported as 12.6 µM (inconclusive).

In the case of CCC(C)N1C(=O)C2C(C(=O)Nc3cccc(OC)c3)C3C=CC2(O3)C1C(=O)NC1CCCCC1C (centres undefined), the AC50 (Cytochrome P450 2C9) is reported as 12.6 µM (inconclusive), the AC50 (Cytochrome P450 2C19; read-out: AC50) is reported as 28.2 µM (inconclusive) and the AC50 (Cytochrome P450 2D6) is reported as 7.08 µM (inconclusive).

N#Cc1c(Cl)cccc1-n1ccnc1 was tested, and the AC50 (Cytochrome P450 2C9) was 2.82 µM (inconclusive) and the AC50 (Cytochrome P450 2D6) was 7.08 µM (inconclusive).

CC(C)N=C(S)NC1(C)CCS(=O)(=O)C1 (centres undefined) was tested, and the AC50 [2] was > 380 µM (inactive) and the EC50 (Protein RecA) was > 380 µM (inactive).

In the case of CCCc1n[nH]c2c1C(c1ccc(OCCN3CCOCC3)c(OCC)c1)C(C#N)=C(N)O2 (centres undefined), the EC50 (Protein RecA) is reported as 10 µM (active).

With O=C1CC(CC(=O)N/N=C/c2ccccc2[N+](=O)[O-])=NN1 the AC50 [2] was 2.19 µM (active) and the EC50 (Protein RecA) was 1.85 µM (active).

O=C(CN1CCCC1)N/N=C/c1ccc(-c2cccc(Cl)c2)o1 was tested, and the AC50 (Cytochrome P450 2C9) was 15.8 µM (inconclusive).

O=C(N/N=C/c1ccc(Cl)cc1Cl)c1cccc(F)c1 was tested, and the AC50 (Cytochrome P450 3A4) was 31.6 µM (inconclusive) and the AC50 (Cytochrome P450 2D6) was 8.91 µM (inconclusive).
